In the series the test system is hairy mouse skin. The settings on record: 2:1 nanoemulsion, aqueous phase 0.05 M HEPES pH 7.4; 5 μg/ml inulin or 3 μg/ml tranexamic acid, FIG. 9.

inulin: the marker permeation slope was 0.233 % per hour per square centimeter.

Values taken from US20020155084A1, “Nanoemulsion formulations” (The Regents of the University of the Michigan, priority 2000, published 2002).
